Experimental data: patent US9957257B2, “Amide compounds as 5-HT4 receptor agonists” (SUVEN LIFE SCIENCES LIMITED, priority 2015, dated 2018)
Where a name gives a salt, the structure may show the parent alone. Values belong to the molecule of their own block, whether it stands above or below them.

How the values were obtained:
hERG = molecular target: T1, hERG (Homo sapiens, UniProt Q12809); assay: Automated hERG patch clamp assay; type: cell-based; details: hERG-HEK293 cells, whole cell patch clamp
T1 construct: expressed in transfected cells; host or cells: HEK293 (hERG-HEK293)
Experimental: To study the cardiac safety of test compounds using automated hERG patch clamp assay, hERG-HEK293 cells were grown to 70% confluency and were harvested using accumax. The cells were then suspended in complete media and were incubated at 37° C. and 5% CO2 for 30 minutes before using these cells for the whole cell patch clamp assay. Whole cell patch clamp recordings were conducted on Nanion's Patchliner using I-V protocol of voltage step from holding potential of −80 mV to +40 mV for 500 ms and then to test potential for 500 ms and back to holding potential of −80 mV. Pulses were elicited every 10 seconds. Each test compound concentration was incubated for 5 minutes. Data analysis was done by plotting the raw data using Igor Pro software and IC50 values were calculated. Cells with resistance >1 Gohms and tail currents of >200 pA were taken into consideration for data analysis. Quinidine was used as positive control.

[1] = molecular target: T2, recombinant human 5-HT4 receptor (Homo sapiens, UniProt Q13639); assay: Determination of EC50 values for 5-HT4 receptor (CHO cells, pCRE-Luc reporter); type: cell-based; details: luciferase reporter, 4 hours incubation, read-out: 5-HT4 receptor agonistic binding in-vitro EC50
T2 construct: expressed in transfected cells
Experimental: A stable CHO cell line expressing recombinant human 5-HT4 receptor and pCRE-Luc reporter system was used for cell-based assay. The assay offers a non-radioactive based approach to determine binding of a compound to GPCRs. In this specific assay, the level of intracellular cyclic AMP, which is modulated by activation, or inhibition of the receptor is measured. The recombinant cells harbor luciferase reporter gene under the control of cAMP response element.
The above cells were grown in 96 well clear bottom white plates in Hams F12 medium containing 10% fetal bovine serum (FBS). Prior to the addition of compounds or standard agonist, cells were serum starved overnight. Increasing concentrations of test compounds were added in OptiMEM medium to the cells. The incubation was continued at 37° C. in CO2 incubator for 4 hours. Medium was removed and cells were washed with phosphate buffered saline. The cells were lysed and luciferase activity was measured in a Luminometer. Luminescence units were plotted against the compound concentrations using Graphpad software. EC50 values of the compounds were defined as the concentration required in stimulating the luciferase activity by 50%.

[2] = Rodent brain penetration study; type: in vivo, Male Wistar rats; details: male, Wistar, rat, 3 mg/kg, oral (gavage), read-out: Single dose Brain Penetration (Cb/Cp)
Experimental: Male Wistar rats (225±25 grams) were used as experimental animals. Three animals were housed in each cage. Animals were given water and food ad libitum throughout the experiment and maintained on a 12 hours light/dark cycle. Brain penetration was determined in discrete manner in rats. One day prior to dosing day, male wistar rats (225-250 grams) were acclimatized. After acclimatization the rats were grouped according to their weight. In each group, 3 animals were kept in individual cage and allowed free access to food and water. At each time point (0.50, 1 and 2 hours) n=3 animals were used. The test compounds were suitably preformulated and administered orally at (free base equivalent) 3 mg/kg. Blood samples were removed via, cardiac puncture by using isoflurane anesthesia. The animals were sacrificed to collect brain tissue. Plasma was separated and brain samples were homogenized and stored frozen at −20° C. until analysis. The concentrations of the test compounds in plasma and brain were determined using LC-MS/MS method. The test compounds were quantified in plasma and brain homogenate by qualified LC-MS/MS method using suitable extraction technique. The test compounds were quantified in the calibration range of 1-500 ng/mL in plasma and brain homogenate. Study samples were analyzed using calibration samples in the batch and quality control samples spread across the batch. Extent of brain-plasma ratio was calculated (Cb/Cp).

[3] = Rodent pharmacokinetic study; type: in vivo, Male wistar rats; details: male, Wistar, plasma, rat; for bioavailability: 3 mg/kg oral vs 1 mg/kg intravenous
Experimental: Male wistar rats (225±25 grams) were used as experimental animals. Three to five animals were housed in each cage. Two days prior to dosing day, male wistar rats (225-250 grams) were anesthetized with isoflurane for surgical placement of jugular vein catheter. Animals were fasted overnight before oral dosing (p.o) and food pellets were allowed 2 hours post dosing, whereas during intravenous dosing food and water were provided as ad libitum. Three rats were dosed with test compounds (3 mg/kg) orally and intravenously (1 mg/kg).
At each time point blood was collected through jugular vein and immediately replenish with an equivalent volume of normal saline from freely moving rats. Collected blood was transferred into a labeled eppendr off containing 10 μL of heparin as anticoagulant. Typically blood samples were collected as following time points: Pre dose, 0.08 (only i.v.), 0.25, 0.5, 1, 2, 4, 6, 8, and 24 hours post dose-(n=3). Blood was centrifuged at 4000 rpm for 10 minutes. Plasma was prepared and stored frozen at −20° C. until analysis. The concentrations of the test compounds were quantified in plasma by qualified LC-MS/MS method using suitable extraction technique. The test compounds were quantified in the calibration range around 2-2000 ng/mL in plasma. Study samples were analyzed using calibration samples in the batch and quality control samples spread across the batch.
Pharmacokinetic parameters Cmax, Tmax, AUCt, T1/2 and Bioavailability were calculated by non-compartmental model using standard non-compartmental model by using WinNonLin 5.0.1 or Phoenix WinNonlin 6.2 version Software package.

[4] = Object recognition task model; type: in vivo, Male Wistar rats; details: p.o.
Experimental: The cognition enhancing properties of compounds of this invention were estimated by using this model.
Male Wistar rats (230-280 grams) were used as experimental animals. Four animals were housed in each cage. Animals were kept on 20% food deprivation before one day and given water ad libitum throughout the experiment and maintained on a 12 hours light/dark cycle. Also the rats were habituated to individual arenas for 1 hour in the absence of any objects.
One group of 12 rats received vehicle (1 mL/Kg) orally and another set of animals received compound of the formula (I) either orally or i.p., before one hour of the familiar (T1) and choice trial (T2).
The experiment was carried out in a 50×50×50 cm open field made up of acrylic. In the familiarization phase, (T1), the rats were placed individually in the open field for 3 minutes, in which two identical objects (plastic bottles, 12.5 cm height×5.5 cm diameter) covered in yellow masking tape alone (a1 and a2) were positioned in two adjacent corners, 10 cms from the walls. After 24 hours of the (T1) trial for long-term memory test, the same rats were placed in the same arena as they were placed in T1 trial. Choice phase (T2) rats were allowed to explore the open field for 3 minutes in presence of one familiar object (a3) and one novel object (b) (Amber color glass bottle, 12 cm high and 5 cm in diameter). Familiar objects presented similar textures, colors and sizes. During the T1 and T2 trial, explorations of each object (defined as sniffing, licking, chewing or having moving vibrissae whilst directing the nose towards the object at a distance of less than 1 cm) were recorded separately by stopwatch. Sitting on an object was not regarded as exploratory activity, however, it was rarely observed.
T1 is the total time spent exploring the familiar objects (a1+a2).
T2 is the total time spent exploring the familiar object and novel object (a3+b).
The object recognition test was performed as described by Behaviour Brain Research, 31 (1988), 47-59.

T2 sequence (Q13639 whole entry): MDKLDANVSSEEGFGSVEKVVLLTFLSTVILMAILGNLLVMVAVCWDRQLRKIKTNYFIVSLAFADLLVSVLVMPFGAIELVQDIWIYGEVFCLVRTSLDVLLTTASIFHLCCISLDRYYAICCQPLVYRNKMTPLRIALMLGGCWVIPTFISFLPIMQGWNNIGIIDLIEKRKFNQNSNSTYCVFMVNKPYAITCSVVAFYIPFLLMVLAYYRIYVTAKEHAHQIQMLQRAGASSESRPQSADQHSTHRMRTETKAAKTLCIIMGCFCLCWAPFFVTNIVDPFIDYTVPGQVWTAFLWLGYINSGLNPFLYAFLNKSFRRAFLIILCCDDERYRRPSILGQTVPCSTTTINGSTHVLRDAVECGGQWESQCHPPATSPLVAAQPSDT
T1 sequence (Q12809 whole entry): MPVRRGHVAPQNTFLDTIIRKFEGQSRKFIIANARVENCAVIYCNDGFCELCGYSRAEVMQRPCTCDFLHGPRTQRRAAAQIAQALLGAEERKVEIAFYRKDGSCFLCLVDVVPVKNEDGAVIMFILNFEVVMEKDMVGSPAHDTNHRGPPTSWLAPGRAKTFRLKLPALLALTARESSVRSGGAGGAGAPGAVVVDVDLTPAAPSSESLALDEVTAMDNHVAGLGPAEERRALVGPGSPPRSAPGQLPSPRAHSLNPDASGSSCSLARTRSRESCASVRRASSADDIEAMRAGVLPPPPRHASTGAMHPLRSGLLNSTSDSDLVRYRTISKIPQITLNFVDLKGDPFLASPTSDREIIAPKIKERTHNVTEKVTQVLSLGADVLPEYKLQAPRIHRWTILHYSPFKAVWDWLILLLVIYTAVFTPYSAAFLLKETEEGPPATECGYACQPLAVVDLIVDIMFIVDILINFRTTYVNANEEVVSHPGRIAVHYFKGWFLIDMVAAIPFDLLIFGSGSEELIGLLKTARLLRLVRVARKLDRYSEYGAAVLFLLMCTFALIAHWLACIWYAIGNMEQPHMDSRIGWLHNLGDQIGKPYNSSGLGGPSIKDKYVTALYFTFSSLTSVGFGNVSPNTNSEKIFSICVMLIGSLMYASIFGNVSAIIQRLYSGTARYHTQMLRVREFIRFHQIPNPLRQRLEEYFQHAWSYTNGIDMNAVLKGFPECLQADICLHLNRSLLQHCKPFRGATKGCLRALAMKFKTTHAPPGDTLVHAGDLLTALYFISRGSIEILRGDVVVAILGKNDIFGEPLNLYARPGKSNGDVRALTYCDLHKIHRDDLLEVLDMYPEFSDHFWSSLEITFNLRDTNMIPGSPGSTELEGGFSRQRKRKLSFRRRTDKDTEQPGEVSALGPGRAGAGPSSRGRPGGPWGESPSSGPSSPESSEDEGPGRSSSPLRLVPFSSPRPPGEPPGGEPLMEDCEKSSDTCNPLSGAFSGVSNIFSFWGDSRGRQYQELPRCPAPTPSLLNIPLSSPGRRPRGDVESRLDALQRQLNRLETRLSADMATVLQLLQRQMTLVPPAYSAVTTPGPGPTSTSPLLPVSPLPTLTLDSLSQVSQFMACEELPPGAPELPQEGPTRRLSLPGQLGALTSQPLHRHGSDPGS

SMILES: CC(C)(O)CN1CC2C(CNC(=O)c3cc(Cl)c(N)c4c3OCCC4)C2C1 (stereo not drawn) [Example 37, 5-Amino-6-chloro-N-{[3-(2-hydroxy-2-methylpropyl)-3-azabicyclo[3.1.0]hex-6-yl]methyl}chroman-8-carboxamide L(+)-tartarate]
- IC50 (hERG): > 10000 nM
- EC50 [1]: 1.1 to 5 nM

SMILES: CC(C)(O)CN1CCC(F)(CNC(=O)c2cc(Cl)c(N)c3c2OCCC3)CC1.O=C(O)C(O)C(O)C(=O)O [Example 44, 5-Amino-6-chloro-N-{[4-fluoro-1-(2-hydroxy-2-methylpropyl)-4-piperidinyl]methyl}chroman-8-carboxamide L(+)-tartarate]
- Kp [2]: 0.78 ± 0.06
- IC50 (hERG): > 10000 nM
- AUC(0-t) ([3]; 1 mg/kg, intravenous (bolus)): 232 ± 14 ng·h/mL
- half-life ([3]; 1 mg/kg, intravenous (bolus)): 1.5 h
- bioavailability [3]: 25 ± 1%
- AUC(0-t) ([3]; 3 mg/kg, oral (gavage)): 176 ± 10 ng·h/mL
- Cmax ([3]; 3 mg/kg, oral (gavage)): 110 ± 25 ng/mL
- Tmax ([3]; 3 mg/kg, oral (gavage)): 0.33 h
- half-life ([3]; 3 mg/kg, oral (gavage)): 1.3 h
- Exploration time mean ± S.E.M, Familiar object ([4]; 3 mg/kg): 5.44 ± 1.02 s
- Exploration time mean ± S.E.M, Novel object ([4]; 3 mg/kg): 14.64 ± 2.19 s
- Inference ([4]; 3 mg/kg): Active

SMILES: Nc1c(Cl)cc(C(=O)NCC2C3CN(CC4(O)CCOCC4)CC23)c2occc12 (stereo not shown) [Example 32, 4-Amino-5-chloro-N-{[3-(4-hydroxytetrahydro-2H-pyran-4-ylmethyl)-3-azabicyclo[3.1.0]hex-6-yl]methyl}benzofuran-7-carboxamide oxalate]
- EC50 [1]: 5.1 to 10 nM

SMILES: Nc1c(Cl)cc(C(=O)NCC2C3CN(C4CCOCC4)CC23)c2c1CCO2 (stereo not shown) [Example 28, 4-Amino-5-chloro-N-{[3-(tetrahydropyran-4-yl)-3-azabicyclo[3.1.0]hex-6-yl]methyl}-2,3-dihydrobenzofuran-7-carboxamide oxalate]
- EC50 [1]: 5.1 to 10 nM

SMILES: Nc1c(Cl)cc(C(=O)NCC2C3CN(CC4CCOCC4)CC23)c2occc12 (stereo not shown) [Example 13, 4-Amino-5-chloro-N-{[3-(tetrahydro-2H-pyran-4-ylmethyl)-3-azabicyclo[3.1.0]hex-6-yl]methyl}benzofuran-7-carboxamide hydrochloride]
- EC50 [1]: 5.1 to 10 nM

SMILES: CC(C)(O)CN1CCC(F)(CNC(=O)c2cc(Cl)c(N)c3ccoc23)CC1 [Example 38, 4-Amino-5-chloro-N-{[4-fluoro-1-(2-hydroxy-2-methylpropyl)-4-piperidinyl]methyl}benzofuran-7-carboxamide]
- EC50 [1]: 5.1 to 10 nM

SMILES: COC(=O)N1CCC(N2CC3C(CNC(=O)c4cc(Cl)c(N)c5c4OCC5)C3C2)CC1 (stereo not drawn) [Example 24, 4-Amino-5-chloro-N-{[3-(1-methoxycarbonylpiperidine-4-yl)-3-azabicyclo[3.1.0]hex-6-yl]methyl}-2,3-dihydrobenzofuran-7-carboxamide L(+)-tartarate]
- EC50 [1]: 5.1 to 10 nM

Continued, in another order:

- Kp [2]: 1 ± 0.16
- AUC(0-t) ([3]; 1 mg/kg, intravenous (bolus)): 211 ± 41 ng·h/mL
- half-life ([3]; 1 mg/kg, intravenous (bolus)): 1.5 h
- bioavailability [3]: 35 ± 5%
- AUC(0-t) ([3]; 3 mg/kg, oral (gavage)): 224 ± 33 ng·h/mL
- Cmax ([3]; 3 mg/kg, oral (gavage)): 167 ± 20 ng/mL
- Tmax ([3]; 3 mg/kg, oral (gavage)): 0.31 h
- half-life ([3]; 3 mg/kg, oral (gavage)): 1 h
SMILES: CC(C)(O)CN1CCC(F)(CNC(=O)c2cc(Br)c(N)c3c2OCCC3)CC1.O=C(O)C(O)C(O)C(=O)O [Example 48, 5-Amino-6-bromo-N-{[4-fluoro-1-(2-hydroxy-2-methylpropyl)-4-piperidinyl]methyl}chroman-8-carboxamide L(+)-tartarate]
- Exploration time mean ± S.E.M, Familiar object ([4]; 3 mg/kg): 7.02 ± 0.76 s
- Exploration time mean ± S.E.M, Novel object ([4]; 3 mg/kg): 13.80 ± 1.74 s
- Inference ([4]; 3 mg/kg): Active

- Kp [2]: 2.53 ± 0.63
- AUC(0-t) ([3]; 1 mg/kg, intravenous (bolus)): 147 ± 17 ng·h/mL
- half-life ([3]; 1 mg/kg, intravenous (bolus)): 0.8 h
- bioavailability [3]: 27 ± 20%
- AUC(0-t) ([3]; 3 mg/kg, oral (gavage)): 250 ± 87 ng·h/mL
- Cmax ([3]; 3 mg/kg, oral (gavage)): 182 ± 26 ng/mL
- Tmax ([3]; 3 mg/kg, oral (gavage)): 0.33 h
- half-life ([3]; 3 mg/kg, oral (gavage)): 1.6 h
- EC50 [1]: 10.1 to 20 nM
SMILES: Cc1cc2c(N)c(Cl)cc(C(=O)NCC3(F)CCN(CC(C)(C)O)CC3)c2o1.O=C(O)C(O)C(O)C(=O)O [Example 53, 4-Amino-5-chloro-2-methyl-N-{[4-fluoro-1-(2-hydroxy-2-methylpropyl)-4-piperidinyl]methyl}benzofuran-7-carboxamide L(+)-tartarate]
- IC50 (hERG): > 10000 nM
- Exploration time mean ± S.E.M, Familiar object ([4]; 0.3 mg/kg): 8.24 ± 1.32 s
- Exploration time mean ± S.E.M, Novel object ([4]; 0.3 mg/kg): 15.98 ± 1.75 s
- Inference ([4]; 0.3 mg/kg): Active

- EC50 [1]: ≤ 1 nM
SMILES: Cc1cc2c(N)c(Cl)cc(C(=O)NCC3CCN(CC(C)(C)CO)CC3)c2o1 [Example 59, 4-Amino-5-chloro-2-methyl-N-{[1-(3-hydroxy-2,2-dimethylpropyl)-4-piperidinyl]methyl}benzofuran-7-carboxamide]

- EC50 [1]: 10.1 to 20 nM
SMILES: CC(C)(O)CN1CC2C(CNC(=O)c3cc(Cl)c(N)c4ccoc34)C2C1 (stereo not drawn) [Example 51, 4-Amino-5-chloro-N-{[3-(2-hydroxy-2-methylpropyl)-3-azabicyclo[3.1.0]hex-6-yl]methyl}benzofuran-7-carboxamide L(+)-tartarate]

- EC50 [1]: 10.1 to 20 nM
SMILES: COCCCN1CC2C(CNC(=O)c3cc(Br)c(N)c4c3OCC4)C2C1 (stereo not shown) [Example 65, 4-Amino-5-bromo-N-{[3-(3-methoxypropyl)-3-azabicyclo[3.1.0]hex-6-yl]methyl}-2,3-dihydrobenzofuran-7-carboxamide oxalate]
